The values below come from US9174966B2, “Crystalline forms of 6-(1H-imidazol-1-yl)-2-phenylquinazoline” (ROTTAPHARM S.P.A., priority 2009, dated 2015).

Series [1] is described as follows: BCS (Biopharmaceutical Classification System) classification. As to conditions: high permeability, low solubility. It counts as physicochemical. From the text: To take these two factors into account, a classification of drug products was introduced, known as BCS (Biopharmaceutical Classification System) (G L Amidon et al., Pharm. Res. 1995, 12: 413-419). Since it is endowed with good permeability and low solubility, 6-(1H-imidazol-1-yl)-2-phenylquinazoline falls into class II (high permeability, low solubility) of the BCS system. For the drug products of this class, the solubility is fundamental in determining their absorption. The preparation of pharmaceutically acceptable salts generally represents a means for increasing the solubility of sparingly soluble products, and, in the case of products endowed with good permeability, is a suitable means for increasing their bioavailability.

A short description of series [2]: Pharmacokinetics in rats, oral versus intravenous administration. It counts as in vivo. As to conditions: for clearance / half-life / Tmax / bioavailability: rat, blood; for half-life: read-out: T½; for Tmax: read-out: Tmax (converted); for bioavailability: read-out: F (bioavailability). As for the experimental part: The samples are analysed by HPLC-MS to determine the content of 6-(1H-imidazol-1-yl)-2-phenylquinazoline, using diphenylhydramine hydrochloride as internal standard. The pharmacokinetic parameters measured are summarized hereinbelow: it is noted that, despite the fact that the polymorph under consideration is of low solubility, the bioavailability (F %) is entirely acceptable.
The pharmacokinetic parameters measured are summarized hereinbelow: it is noted that the salt under consideration has optimum bioavailability (F %). […]

Series [3] in a line: Stability to mechanical stress (milling, XRPD). It counts as physicochemical. As to conditions: Retsch MM 200 mill, 50 Hz, 5 min. As for the experimental part:
6-(1H-Imidazol-1-yl)-2-phenylquinazoline, polymorph A, was subjected to milling by means of a Retsch MM 200 mill, at 50 Hz for 5 min., and the product thus obtained was analysed by XRPD.
6-(1H-Imidazol-1-yl)-2-phenylquinazoline succinate form A, was subjected to milling by means of a Retsch MM 200 mill, at 50 Hz for 5 min., and the product thus obtained was subjected to XRPD analysis.
6-(1H-Imidazol-1-yl)-2-phenylquinazoline L-tartrate dihydrate, form A, was subjected to milling by means of a Retsch MM 200 mill, at 50 Hz for 5 min., and the product thus obtained was subjected to XRPD analysis.
6-(1H-Imidazol-1-yl)-2-phenylquinazoline maleate, form A, was subjected to milling by means of a Retsch MM 200 mill, at 50 Hz for 5 min., and the product thus obtained was subjected to XRPD analysis.

The nature of a further series: physchem. As to conditions: 37 °C, pH 2, aqueous buffer, thermodynamic from solid.
The nature of series [4]: Thermal stability of the crystalline form (XRPD). As to conditions: XRPD.
Series [5] can be described thus: Hygroscopicity noted for the isolated crystalline product. It counts as physicochemical. As to conditions: as noted in the preparation example.
A short description of series [6]: Solubility in aqueous solution of NaCl 0.9% (UV absorbance at 260 nm). As to conditions: aqueous solution of NaCl 0.9%, 37 °C, saline or isotonic, thermodynamic from solid, aqueous NaCl 0.9%, stirred 500 rpm, 24 hours at 37° C. Type of series: physicochemical. As for the experimental part: The solubility is 0.6 mg/mL. […]
The sample of 6-(1H-imidazol-1-yl)-2-phenylquinazoline phosphate, form A, is stirred in an aqueous solution of NaCl 0.9%, at 500 rpm, so as to obtain a suspension (50 mg in 2 mL), for 24 hours at 37° C.
(§1) The sample of 6-(1H-imidazol-1-yl)-2-phenylquinazoline phosphate, form A, is stirred in an aqueous solution of NaCl 0.9%, at 500 rpm, so as to obtain a suspension (70 mg in 2 mL), for 24 hours at 37° C. […] The dissolution rate is measured by adding 2 mg of product to 40 mL of water at 37° C., stirring at 500 rpm, and measuring the absorbance at 260 nm every 0.05 min; the dissolution rate is found to be 1.9×10^−4 gr/min.

A short description of series [7]: Stability to moisture, DVS analysis (Differential Vapour Sorption). It counts as physicochemical. As to conditions: 25° C., hydration/dehydration cycle. As for the experimental part:
The sample placed on a microbalance is subjected, in a chamber of controlled humidity, at 25° C., to a cycle of hydration (increasing humidity, red line) and of dehydration (decreasing humidity, blue line).
The sample of 6-(1H-imidazol-1-yl)-2-phenylquinazoline succinate form A was subjected to DVS analysis (as described in Example 32).
The sample of 6-(1H-imidazol-1-yl)-2-phenylquinazoline L-tartrate dihydrate, form A, was subjected to DVS analysis.
The sample of 6-(1H-imidazol-1-yl)-2-phenylquinazoline maleate, form A, was subjected to DVS analysis.

Series [8] in a line: Dissolution rate in water at 37° C. It counts as physicochemical. As to conditions: 2 mg of product in 40 mL of water at 37° C., 500 rpm, absorbance at 260 nm. As for the experimental part: as §1
[9] abbreviates: OS 10 mg/Kg compared with IV 5 mg/kg.
Setting [10] is: po, 10 mg/kg, OS (oral), 10 mg/Kg.
Where [11] appears, read: 90° C., 12 hours (or at least 12 hours).

Converted amounts (≈) assume the structure as drawn. “Also recorded” adds a separate entry of the source. Read-outs that look alike come from different tables or passages of the source.

Protocol for physchem: A sample of 6-(1H-imidazol-1-yl)-2-phenylquinazoline, polymorph A (150 mg), is stirred in a phosphate buffer solution at pH 7.4 (8 mL), at 500 rpm, so as to obtain a suspension, for 24 hours at 37° C. The suspension is then filtered and the concentration of the dissolved product is measured by reading the UV absorbance at 260 nm. […] A sample of 6-(1H-imidazol-1-yl)-2-phenylquinazoline, polymorph A (250 mg), is stirred in a phosphate buffer solution at pH 2 (2 mL), at 500 rpm, so as to obtain a suspension, for 24 hours at 37° C. The suspension is then filtered and the concentration of the dissolved product is measured by reading the UV absorbance at 260 nm.
A sample of 6-(1H-imidazol-1-yl)-2-phenylquinazoline, form B, (50 mg), is stirred in a phosphate buffer solution at pH 7.4 (2 mL), at 500 rpm, so as to obtain a suspension, for 24 hours at 37° C. The suspension is then filtered and the concentration of the dissolved product is measured by reading the UV absorbance at 260 nm.
A sample of 6-(1H-imidazol-1-yl)-2-phenylquinazoline, form C (30 mg), is stirred in a phosphate buffer solution at pH 7.4 (2 mL), at 500 rpm, so as to obtain a suspension, for 24 hours at 37° C. The suspension is then filtered and the concentration of the dissolved product is measured by reading the UV absorbance at 260 nm. […]

For `c1ccc(-c2ncc3cc(-n4ccnc4)ccc3n2)cc1` [6-(1H-imidazol-1-yl)-2-phenylquinazoline], the BCS class entry in series [1] is “class II”.
In general, Tmax refers to the time at which the peak concentration occurs. As usually defined, the solubility is the dissolved amount per volume that the medium holds. Lower therefore signals little dissolved substance. Turning to `c1ccc(-c2ncc3cc(-n4ccnc4)ccc3n2)cc1` [polymorph A, 6-(1H-imidazol-1-yl)-2-phenylquinazoline], the V in series [2] (IV, 5 mg/kg) turned out to be 1.28 L/kg; in series [2] (OS (oral), 10 mg/Kg) it was 1.60 L/kg. Also, in series [2] (setting [9]), the “F (bioavailability)” value is 50.3%. Further, the CL in series [2] (OS (oral), 10 mg/Kg) turned out to be 22 mL/min/kg. In series [2] (iv, 5 mg/kg), this molecule had a clearance of 21 mL/min/kg. Also, the half-life in series [2] (iv, 5 mg/kg, IV, 5 mg/kg) came to 42.1 min; in [2] (setting [10]), 45.4 min. In addition, the Tmax in [2] (setting [10]) was 100 min. In [3], the stability to milling entry was “without any contamination with other crystalline forms, and no appreciable formation of amorphous material”. The solubility at 24 h in the series “physchem” turned out to be 1800 µg/mL (≈ 6.61 mM). Further, the “thermal stability of crystalline form” value in [4] (40° C., RH 85%, 5 days (at least 5 days for polymorph A)) was “stable”; in series [4] (setting [11]) it was “stable”.
For orientation: bioavailability means the share of a dose that reaches the circulation, judged against a reference dose that is usually intravenous. `O=C(O)CCC(=O)O.c1ccc(-c2ncc3cc(-n4ccnc4)ccc3n2)cc1` [succinate form A, 6-(1H-imidazol-1-yl)-2-phenylquinazoline succinate]: the V in series [2] (IV, 5 mg/kg) amounted to 1.1 L/kg; in [2] (OS (oral), 10 mg/Kg) it was 3.74 L/kg. For the same molecule, the CL in series [2] (OS (oral), 10 mg/Kg) came to 19 mL/min/kg. The bioavailability in series [2] (setting [9]) was found to be 65%. In series [2] (iv, 5 mg/kg), this molecule came in with a clearance of 18 mL/min/kg. Moreover, the half-life in [2] (iv, 5 mg/kg, IV, 5 mg/kg) was 48.9 min; in [2] (setting [10]) it was 48.6 min. For the same molecule, the Tmax in series [2] (setting [10]) was 60 min. Also, the “hygroscopicity of the isolated product” value in series [5] (succinate) was “non-hygroscopic”. The molecule also registered a solubility at 24 h in series [6] of 600 µg/mL. Besides, in [3], the stability to milling entry was “has not undergone any changes of crystalline form and no presence of amorphous product is revealed”. Besides, the “hygroscopicity (DVS)” value in [7] (succinate) was “not entirely hygroscopic; also recorded: only at about 90% RH is there a significant minimum absorption of water”. In series [8], the dissolution rate is reported as 3.53×10^−5 gr/min. Moreover, the “thermal stability of crystalline form” value in series [4] (40° C., RH 85%, 7 days) is recorded as “stable”; in series [4] (setting [11]), “stable”.
For the molecule `O=C(O)C(O)C(O)C(=O)O.c1ccc(-c2ncc3cc(-n4ccnc4)ccc3n2)cc1` [tartrate form A, 6-(1H-imidazol-1-yl)-2-phenylquinazoline (L) tartrate dihydrate], the V was determined as 1.4 L/kg in series [2] (IV, 5 mg/kg) and 5.47 L/kg in series [2] (OS (oral), 10 mg/Kg). Also, the CL in [2] (OS (oral), 10 mg/Kg) was 17 mL/min/kg. The bioavailability in series [2] (setting [9]) amounted to 81%. Moreover, the clearance in [2] (iv, 5 mg/kg) was 23 mL/min/kg. For the same molecule, the half-life was determined as 47.7 min in series [2] (iv, 5 mg/kg, IV, 5 mg/kg) and 47.2 min in [2] (setting [10]). The Tmax in [2] (setting [10]) was 100 min. For the same molecule, the “hygroscopicity of the isolated product” value in [5] is “non-hygroscopic”. The solubility at 24 h in series [6] came to 2500 µg/mL. In series [3], the stability to milling entry is “has not undergone any changes of crystalline form, and a slight increase in the presence of amorphous product is revealed”. Moreover, in series [7] (tartrate dihydrate), the “hygroscopicity (DVS)” value was “not hygroscopic in the range 25-70% RH; also recorded: point of inflection at 75% RH; also recorded: highly hygroscopic only at values of greater than 80% RH”. For the same molecule, the dissolution rate in series [8] is 1.04×10^−3 gr/min. The “thermal stability of crystalline form” value in series [4] (40° C., 70% RH, 7 days) is recorded as “stable”; in series [4] (90° C., 12 hours (or at least 12 hours), tartrate dihydrate), “gives rise to the amorphous form”.
